Format in all cases: cell-based
Experiment [1] has as its system IL-6-induced pSTAT1 in hPBMC. As to the kind of experiment: IL-6-induced pSTAT1 in hPBMC (flow cytometry, CD4 positive cells). The following applies: Homo sapiens, 10 ng/mL IL-6, CD4 positive cells. How it is done: • 1) Preparation of culture medium: 1640 medium+10% fetal bovine serum+1% penicillin/streptomycin+1% non-essential amino acids (all percentages were v/v) • 2) Cells were thawed in a 37° C. water bath and then centrifuged. The cell concentration was adjusted to 5×10^5 cells/mL using the prepared culture medium. • 3) Cell suspension was seeded into a 96-well round-bottom plate at 200 μL/well and incubated at 37° C. for 90 minutes. • 4) Drugs were added, followed by a 37° C. incubation for 30 minutes. • 5) Cells were then stimulated by adding 10 ng/mL of IL-6 or 4 ng/mL of IL-2, followed by a 37° C. incubation for 15 minutes.
• 1) After completing the stimulation, cells were centrifuged and washed once with staining buffer (DPBS+2% bovine serum albumin). Antibodies were then added for a 30-minute staining process at 4° C. […]
• 1) Response %=[(MFI value of drug-treated well−mean MFI value of control well)/(mean MFI value of DMSO well−mean MFI value of control well)]*100% was calculated. • 2) The calculated Response % values were input into GraphPad Prism 8 software. […]
Background: In flow cytometry, cells or beads pass a laser one at a time.

Experiment [2] relates to mouse CCL5 secretion by BV-2 cell line. As to the kind of experiment: CCL5 secretion by LPS/IFN-γ-activated BV-2 cells (ELISA). On the procedure: Step 1: BV-2 cells in the exponential growth phase were collected, and viable cells were counted using a Vi-Cell XR cell counter. The cell suspension was adjusted to an appropriate concentration with the culture medium. 160 μL of cell suspension was added to each well of a 96-well cell culture plate, resulting in a final cell concentration of 12,000 cells per well. The culture plate was incubated for 24 hours in a 37° C., 5% CO2 incubator.
Step 2: A 10 mM DMSO compound stock solution was diluted at a ratio of 1:4 using DMSO to prepare a series of 1000× test compound solutions. These 1000× test compound solutions were further diluted at a ratio of 1:100 using cell culture medium to prepare a series of 10× test compound solutions. Finally, the 96-well plate that had been plated with cells the day before was taken out. According to the experimental well plate loading design, 20 μL of the corresponding 10× solution was added to each well, with three duplicate wells for each drug concentration. The final concentrations of the test compounds used in the experiment (i.e., 1× solutions) have a range of 10, 2.5, 0.625, 0.156, 0.0391, 0.0098, and 0.0024 μM. The final DMSO concentration in each well was 0.1%.
After the compound was added, the 96-well plate was incubated for half an hour in the 37° C., 5% CO2 incubator.
After the pre-incubation was completed, 20 μL of culture medium containing 100 ng/mL LPS and 100 ng/mL IFN-γ (final concentrations of 10 ng/mL LPS and 10 ng/mL IFN-7) was added to each well to induce the activation of BV-2 cells. The culture plate was then incubated for 24 hours in the 37° C., 5% CO2 incubator. […]
Step 5 (NO and CCL5 detection): The CCL5 levels in the supernatant were detected using an ELISA kit (Mouse CCL5/RANTES DuoSet ELISA; R&D; DY478-05), following the instructions provided with the kit. The nitric oxide (NO) levels in the supernatant were detected using the Griess Reagent System (Promega; G2930), following the instructions provided with the kit.
Step 1: Firstly, the optical density values obtained from ELISA and Griess tests were used to plot a standard curve and calculate the absolute concentrations of each sample. The absolute concentration was then calibrated using the CTG fluorescence value corresponding to each sample to obtain the calibrated concentration. The formula for calculating the calibrated concentration was: calibrated concentration=absolute concentration/CTG fluorescence value of the same sample.
Step 2: Based on the calibrated concentration of each sample, the relative percentage of CCL5 or NO secretion (i.e., CCL5 production (%) or NO production (%)) at each test concentration relative to the blank (DMSO) group was calculated. […]
(In general: An ELISA detects its analyte on a solid surface through an enzyme-linked reagent.)

Another experiment deals with rat primary astrocytes. Kind of experiment: Cell viability (CCK-8) in NMO-IgG induced astrocyte injury model.
Setting [3] is: Rattus norvegicus, Astrocyte, 24 h, read-out: Cell viability percentage, Mean.

One may read the IC50 as the concentration that inhibits the measured activity by half. What is called viability is a read-out of living cells in per cent, often relative to untreated cells.

`CN(c1ncnc2[nH]ccc12)[C@@H]1CCc2cc(C#N)nn2C1` [Compound I]: in experiment [1], the IC50 was found to be 73.1 nM. In experiment [2] (24 h co-incubation, up to 10 μM), the “Maximum inhibition rate on CCL5 secretion by BV-2” value is 80.29%. Besides, the IC50 in experiment [2] (Mus musculus, BV-2, 24 h co-incubation) is 863 nM. In addition, the “inhibitory effect on cell viability” value in the experiment with rat primary astrocytes (24 h co-incubation, highest test concentration 20 μM) was “no inhibitory effect on cell viability”. Besides, in the experiment on rat primary astrocytes (setting [3]), the viability at 0.027 µM was 112%, the viability at 0.247 µM worked out at 105%, the viability at 2.222 µM is 99.7% and the viability at 20 µM was found to be 99.4%.

For the origin of these results see patent US20240238299A1, “USE OF PYRROLOPYRIMIDINE COMPOUND” (GUANGZHOU JOYO PHARMATECH CO., LTD, priority 2021, published 2024).
